Measurements: ChEMBL document CHEMBL4184317, “Discovery of Tetrahydroquinoxalines as Bromodomain and Extra-Terminal Domain (BET) Inhibitors with Selectivity for the Second Bromodomain” (J Med Chem, 2018)

Experiments:
Peregrin = target: T1, Peregrin (Homo sapiens, UniProt P55201); assay: Displacement of Alexa 647 ligand from 6H-Flag-Tev-BRPF1 (622 to 738 residues) (unknown origin) expressed in Escherichia coli BL21 (DE3) cells after 30 mins by TR-FRET assay
T1 sequence (P55201 whole entry): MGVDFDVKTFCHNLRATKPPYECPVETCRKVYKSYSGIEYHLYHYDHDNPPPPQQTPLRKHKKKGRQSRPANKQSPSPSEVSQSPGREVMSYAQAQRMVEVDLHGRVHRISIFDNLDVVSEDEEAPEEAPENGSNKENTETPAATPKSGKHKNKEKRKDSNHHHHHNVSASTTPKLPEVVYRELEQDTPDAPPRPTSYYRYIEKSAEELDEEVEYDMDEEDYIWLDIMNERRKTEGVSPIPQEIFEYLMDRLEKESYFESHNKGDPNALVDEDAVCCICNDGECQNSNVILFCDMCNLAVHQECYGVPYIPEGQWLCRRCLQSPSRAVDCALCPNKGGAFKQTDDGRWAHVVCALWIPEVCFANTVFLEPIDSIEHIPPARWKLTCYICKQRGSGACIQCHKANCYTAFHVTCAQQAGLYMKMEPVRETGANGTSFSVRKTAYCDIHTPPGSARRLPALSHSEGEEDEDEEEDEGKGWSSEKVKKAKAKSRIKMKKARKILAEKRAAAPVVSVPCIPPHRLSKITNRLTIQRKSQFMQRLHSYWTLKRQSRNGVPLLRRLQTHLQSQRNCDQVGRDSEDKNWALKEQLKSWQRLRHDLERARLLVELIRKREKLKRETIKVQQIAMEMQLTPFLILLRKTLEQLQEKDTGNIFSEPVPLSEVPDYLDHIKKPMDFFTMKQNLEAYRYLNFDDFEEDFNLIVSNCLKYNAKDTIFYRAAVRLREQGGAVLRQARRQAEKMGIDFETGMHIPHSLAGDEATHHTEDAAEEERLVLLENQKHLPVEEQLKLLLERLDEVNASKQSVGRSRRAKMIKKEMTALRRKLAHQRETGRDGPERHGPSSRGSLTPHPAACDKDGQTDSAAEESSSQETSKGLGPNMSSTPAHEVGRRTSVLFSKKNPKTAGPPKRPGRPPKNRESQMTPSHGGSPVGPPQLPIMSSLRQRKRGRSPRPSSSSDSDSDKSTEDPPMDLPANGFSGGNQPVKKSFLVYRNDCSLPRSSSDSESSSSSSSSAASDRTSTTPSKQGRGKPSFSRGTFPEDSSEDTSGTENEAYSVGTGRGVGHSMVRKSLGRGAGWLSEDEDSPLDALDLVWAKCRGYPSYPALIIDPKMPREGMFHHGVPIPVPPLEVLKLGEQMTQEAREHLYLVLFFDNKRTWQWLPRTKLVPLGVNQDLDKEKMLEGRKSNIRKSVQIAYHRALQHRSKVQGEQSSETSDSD

Homo sapiens = organism: Homo sapiens; assay: Selectivity ratio of Kd for human partial length DNA-tagged BRPF1 to Kd for human partial length DNA-tagged BRD4 isoform long BD2

CC(=O)N1c2ccc(C3=CCNCC3)cc2N(Cc2ccccc2CO)C[C@@H]1C1CC1 gave an IC50 (Peregrin) of 20 µM and a Selectivity ratio (Homo sapiens) of 372.
